This note sets out measurements from US20170173106A1, “Polypeptide Fragments of 168A-T2 and Compositions Comprising Them for Use in Treating Cancer” (GENE SIGNAL INTERNATIONAL SA, priority 2014, published 2017).

Test [1] relates to HUVECs. Nature of the test: Cellular proliferation test (MTT) on HUVECs. The class given is cell-based, human. To be noted: 48 h. As for the experimental part: Evaluation of cellular proliferation was performed using 4,5-diMethylThiazol-2-yl)-2,5 diphenylTetrazolium bromide (MTT) test. After 18 hrs of culture, the media was changed by EBM2 supplemented with gentamycine and 5% SVF. Different concentrations of peptides were added under a volume of 10 μL/well. Cells were incubated for 48 hrs at 37° C. MTT was added (50 μL/well) to the cells for 3 hrs.
Cells were grown for 48 h in EGM2-MV and proliferation was quantified by MTT assay.

Test [2] deals with HUVECs. Nature of the test: Migration test following the wound test. The class given is cell-based, human. The note with it: 66 μM (FIG. 3); 20 hrs. The method, then:
The migration of the cells was evaluated according to the wound test (Sato and Rifkin 1988 J Cell Biol 107, 1199-1205). HUVECs were cultivated to confluence in an EGM2-MV media. The wound width was measured using the software “Analysis” (Soft Imaging System Gmbh Digital, Olympus). Peptides to be tested were then added to the media.
A wound has been performed with a chisel tip on the cell layer. The HUVECs migration following the addition of peptides was evaluated by the wound assay and the progress of the migration front of the HUVECs was analyzed after 20 hrs of culture. […] Pictures were shot with a microscope equipped with a camera (zoom ×40).

The target in the next test is T1, CD9-CD9P-1 complex (Homo sapiens, UniProt P21926+Q9P2B2).
T1 construct: endogenous in cells; host or cells: HUVEC
T1 sequence (Q9P2B2 26-879): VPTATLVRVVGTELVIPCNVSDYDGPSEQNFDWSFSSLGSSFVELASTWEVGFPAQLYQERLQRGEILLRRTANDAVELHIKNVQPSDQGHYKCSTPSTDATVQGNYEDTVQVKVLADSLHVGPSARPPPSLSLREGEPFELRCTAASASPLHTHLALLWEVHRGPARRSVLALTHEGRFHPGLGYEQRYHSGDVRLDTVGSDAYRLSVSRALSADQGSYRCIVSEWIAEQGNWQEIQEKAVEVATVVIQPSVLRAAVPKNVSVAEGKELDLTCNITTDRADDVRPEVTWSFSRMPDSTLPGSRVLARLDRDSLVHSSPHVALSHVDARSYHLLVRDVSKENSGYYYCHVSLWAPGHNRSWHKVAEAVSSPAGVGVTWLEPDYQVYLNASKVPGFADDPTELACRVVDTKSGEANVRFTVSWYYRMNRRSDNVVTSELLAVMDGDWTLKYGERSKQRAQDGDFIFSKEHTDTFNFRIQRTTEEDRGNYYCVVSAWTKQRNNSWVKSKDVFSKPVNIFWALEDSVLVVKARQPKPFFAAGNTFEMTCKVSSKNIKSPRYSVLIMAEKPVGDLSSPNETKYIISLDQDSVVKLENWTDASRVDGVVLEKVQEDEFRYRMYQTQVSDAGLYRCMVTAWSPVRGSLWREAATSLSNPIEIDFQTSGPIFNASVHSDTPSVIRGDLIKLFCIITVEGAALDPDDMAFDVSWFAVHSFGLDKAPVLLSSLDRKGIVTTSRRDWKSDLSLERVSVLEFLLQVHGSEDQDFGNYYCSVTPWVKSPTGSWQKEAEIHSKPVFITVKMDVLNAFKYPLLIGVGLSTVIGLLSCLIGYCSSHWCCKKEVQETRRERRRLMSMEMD
T1 sequence (P21926 2-228 limits assumed): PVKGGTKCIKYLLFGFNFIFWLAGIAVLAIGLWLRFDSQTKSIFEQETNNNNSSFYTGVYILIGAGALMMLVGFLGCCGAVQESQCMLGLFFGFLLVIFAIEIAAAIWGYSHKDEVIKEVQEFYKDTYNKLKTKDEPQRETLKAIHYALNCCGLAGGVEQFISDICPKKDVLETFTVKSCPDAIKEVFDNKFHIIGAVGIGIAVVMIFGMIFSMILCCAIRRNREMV
Nature of the test: Immunoprecipitation in HUVECs: CD9P-1 with CD9. The class given is cell-based. To be noted: 33 μM; 2 hrs. As for the experimental part: FIG. 13 is a photograph representing the dissociation of CD9-CD9P-1, CD9P-1-CD151 and CD9-CD151 complexes by P3 in HUVECs. HUVECs incubated for 2 h with 33 μM P3, PCT or solvent in EGM2-MV medium were lysed in brij 97 buffer, then CD81, CD9 or CD151 were immunoprecipitated with the corresponding antibody. Line A: Western blot results obtained with anti-CD9P-1 antibody from immunoprecipitated CD81, CD9 and CD151. Line B: Western blot results obtained with anti-CD9 antibody from immunoprecipitated CD81, CD9 and CD151. Line C: Western blot results obtained with anti-CD151 antibody from immunoprecipitated CD81, CD9 and CD151. PCT: control peptide. IP: immunoprecipitation.
To study more precisely the effect of P3 on the associations of tetraspanins CD9, CD81, and CD151 between them and with CD9P-1, immunoprecipitation (IP) experiments were performed. In the control experiment (with the solvent), CD9P-1 co-precipitated with CD9 and CD81. A weak co-precipitation was observed between […] and CD151. The associations between tetraspanins and CD9P-1 are not modified under PCT condition. However, the interactions between CD9P-1 and CD9 and between CD9P-1 and CD151 are decreased while the HUVECs are incubated for 2 hrs with 33 μM of P3. The association between CD9P-1 and CD81 is not modified by P3 (FIG. 13A).

A further test relates to endostatin. Nature of the test: Endostatin production by HUVECs (ELISA). The note with it: rising concentrations; 48 hrs. The class given is cell-based, human. As for the experimental part: HUVECs were transfected with siRNA using transfecting agent GENJET according to the manufacturer's instructions. After 48 hrs of incubation, supernatants were collected, protein expression tested by western blots and endostatin quantified.
Endostatin levels were quantified by ELISAs on lysates of HUVECs incubated at rising concentrations of P3 or PCT for 48 hrs.
In order to evaluate the role of metalloproteinases (MMPs) in endostatin production, a polyvalent inhibitor of MMPs, GM6001 was used. The concentration of endostatin in supernatants is at 6.2 ng/mg of protein of the lysates/48 hrs. […] GM6001 inhibits endostatin production induced by P3. MMPs might then be implicated in endostatin production induced by P3.
HUVECs were incubated for 48 hrs in an EGM2-MV media with an anti-CD151 antibody (11G5a) or an irrelevant antibody (negative control unable to recognize any protein). Then endostatin levels were measured by ELISA in supernatants.
HUVECs cells were transfected with specific siRNA of CD151 and CD9. Protein expression was analyzed in western blots. In parallel, endostatin levels were measured by ELISA in supernatants. […] Levels of endostatin in supernatant of HUVECs cells transfected with siRNA were measured. […] On the contrary, levels of endostatin increased at 9.4 ng/mg of protein lysates/48 hrs in HUVECs depleted in CD151 (FIG. 18B). CD151 is thus involved in the production of endostatin.
A general note: An ELISA detects its analyte on a solid surface through an enzyme-linked reagent.

As for NQKGCYDLVT (control peptide) [PCT], the “effect on HUVECs proliferation” value in the test with HUVECs [1] is reported as “No effect”. The “wound closure / HUVECs migration” value with HUVECs [2] is given as “completely closed”. For the same sequence, the “interaction between CD9P-1 and CD9” value with CD9-CD9P-1 complex is “not modified”. For the same sequence, the “level of endostatin compared to the solvent condition” value in the test on endostatin is listed as “does not modify the level of endostatin”.
